The text below walks through data of PMC3493109 (Biochemistry, 2012).

Holding throughout (format): binding
Experiment [1] deals with glyoxylate carboligase (GCL) (Escherichia coli, UniProt P0AEP7, I393A/V51D). In words: CD titration at […] nm.
The target of experiment [2] is T1, glyoxylate carboligase (GCL) (Escherichia coli, UniProt P0AEP7, I393A). Nature of the experiment: CD titration at […] nm.
Experiment [3] has as its target T1, glyoxylate carboligase (GCL). In words: CD titration at […] nm, Hill fit.

T1 sequence (P0AEP7 2-593 I393A limits assumed): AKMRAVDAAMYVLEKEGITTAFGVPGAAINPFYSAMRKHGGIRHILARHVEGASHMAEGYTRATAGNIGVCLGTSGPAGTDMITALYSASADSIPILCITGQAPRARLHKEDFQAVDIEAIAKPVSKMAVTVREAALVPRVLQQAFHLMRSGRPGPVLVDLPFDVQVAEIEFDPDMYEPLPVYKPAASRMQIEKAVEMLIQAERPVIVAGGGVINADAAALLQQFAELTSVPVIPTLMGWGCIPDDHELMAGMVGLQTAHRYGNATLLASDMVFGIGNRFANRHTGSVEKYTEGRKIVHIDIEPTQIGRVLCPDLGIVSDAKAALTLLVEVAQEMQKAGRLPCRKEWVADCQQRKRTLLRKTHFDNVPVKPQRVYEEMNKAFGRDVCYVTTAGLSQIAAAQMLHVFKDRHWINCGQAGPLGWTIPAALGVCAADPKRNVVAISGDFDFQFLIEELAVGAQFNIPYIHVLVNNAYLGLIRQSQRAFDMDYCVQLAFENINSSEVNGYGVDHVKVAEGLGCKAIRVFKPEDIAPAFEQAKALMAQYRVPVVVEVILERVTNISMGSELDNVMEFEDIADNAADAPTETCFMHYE
Chain of glyoxylate carboligase (GCL) (Escherichia coli, UniProt P0AEP7, I393A/V51D) (P0AEP7 2-593 V51D/I393A limits assumed): as the sequence (P0AEP7 2-593 I393A limits assumed) above, with V50D counted along it

As for `COP(=O)(O)C(C)=O` [MAP], the results for the Kd in experiment [1] and in experiment [2] were 110 ± 100 µM and 1400 ± 90 µM, respectively.

Regarding `CC(=O)C(=O)O` [pyruvate], binding in experiment [3] was characterised by a dissociation constant (Kd) of 8.2 µM.

As usually defined, the Kd is a measure of binding affinity in units of concentration. Lower therefore signals a tighter complex.
